{
  "source": "the supplement of paper PMC10307832",
  "test_in_all_cases": "relative viability (nuclei count vs DMSO), 5 days (fraction); higher = more cells survive",
  "key": {"[1]": {"compound": "C=CCn1c(=O)c2cnc(Nc3ccc(N4CCN(C)CC4)cc3)nc2n1-c1cccc(C(C)(C)O)n1 [Adavosertib]", "method_in_brief": "(§1)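 After an overnight hold at 37 °C, lung cancer cell lines in 1536-well plates were pinned with five library-drug doses (not always all listed), each √10 from the next, on vehicle-anchored plates. The cells stayed 5 days without fresh medium, then a one-step fix, permeabilisation and Hoechst stain preceded 4× imaging and MetaXpress nuclear counts. A plate passed only with control CV under 25% and at least one doubling. Viability is the median, over plates, of treated-well nuclei relative to vehicle-well nuclei.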"}, "[2]": {"compound": "COc1nc(N)nc2c1ncn2[C@@H]1O[C@H](CO)[C@@H](O)[C@@H]1O [Nelarabine]", "method_in_brief": "as §1"}, "[3]": {"compound": "C=CCn1c(=O)c2cnc(Nc3ccc(N4CCN(C)CC4)cc3)nc2n1-c1cccc(C(C)(C)O)n1 [Adavosertib] + CC1(C)CCC(c2ccc(Cl)cc2)=C(CN2CCN(c3ccc(C(=O)NS(=O)(=O)c4ccc(N[C@H](CCN5CCOCC5)CSc5ccccc5)c(S(=O)(=O)C(F)(F)F)c4)cc3)CC2)C1 [Navitoclax] (partner 0.5 µM)", "method_in_brief": "(§2)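 Lung cancer cell lines, seeded in 1536-well plates, were treated the following day by pin tool with a single drug or with five library-drug doses (not always all listed) in √10 steps on top of a fixed anchor-drug dose. Cells were fixed and nuclei stained in one step after 5 days, and nuclei were counted. Relative viability is the nuclei count for treated wells divided by that for vehicle wells, reported as medians of duplicate plates.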"}, "[4]": {"compound": "C=CCn1c(=O)c2cnc(Nc3ccc(N4CCN(C)CC4)cc3)nc2n1-c1cccc(C(C)(C)O)n1 [Adavosertib] + NC(=O)Nc1cc(-c2cccc(F)c2)sc1C(=O)N[C@H]1CCCNC1 [AZD7762] (partner 0.2 µM)", "method_in_brief": "as §2"}, "[5]": {"compound": "COc1nc(N)nc2c1ncn2[C@@H]1O[C@H](CO)[C@@H](O)[C@@H]1O [Nelarabine] + C[C@]1(O)C[C@@H](c2nc(-c3ccc4ccc(-c5ccccc5)nc4c3)c3c(N)nccn32)C1 [Linsitinib] (partner 1 µM)", "method_in_brief": "as §2"}},
  "data": [
    {"cell line": "EMC-BAC-2", "values": [
      {"measurement": "relative viability", "setting": "[1]; 0.03162 µM", "result": 1.02},
      {"measurement": "relative viability", "setting": "[1]; 0.1 µM", "result": 1.08},
      {"measurement": "relative viability", "setting": "[1]; 0.3162 µM", "result": 0.919},
      {"measurement": "relative viability", "setting": "[2]; 0.01 µM", "result": 1.01},
      {"measurement": "relative viability", "setting": "[2]; 0.03162 µM", "result": 1.22},
      {"measurement": "relative viability", "setting": "[2]; 0.1 µM", "result": 1.08},
      {"measurement": "relative viability", "setting": "[2]; 0.3162 µM", "result": 0.968},
      {"measurement": "relative viability", "setting": "[2]; 1 µM", "result": 1.07},
      {"measurement": "relative viability", "setting": "[3]; first compound 0.01 µM", "result": 1.22},
      {"measurement": "relative viability", "setting": "[3]; first compound 0.03162 µM", "result": 1.12},
      {"measurement": "relative viability", "setting": "[3]; first compound 0.1 µM", "result": 1.2},
      {"measurement": "relative viability", "setting": "[3]; first compound 0.3162 µM", "result": 1.19},
      {"measurement": "relative viability", "setting": "[4]; first compound 0.03162 µM", "result": 1.15},
      {"measurement": "relative viability", "setting": "[4]; first compound 0.1 µM", "result": 0.887},
      {"measurement": "relative viability", "setting": "[4]; first compound 0.3162 µM", "result": 1.06},
      {"measurement": "relative viability", "setting": "[5]; first compound 0.01 µM", "result": 0.958},
      {"measurement": "relative viability", "setting": "[5]; first compound 0.03162 µM", "result": 0.781},
      {"measurement": "relative viability", "setting": "[5]; first compound 0.1 µM", "result": 0.83},
      {"measurement": "relative viability", "setting": "[5]; first compound 0.3162 µM", "result": 0.831},
      {"measurement": "relative viability", "setting": "[5]; first compound 1 µM", "result": 0.859}
    ]}
  ]
}
